From ChEMBL document CHEMBL4020736, “Synthesis and biological evaluation of novel selective androgen receptor modulators (SARMs) Part III: Discovery of 4-(5-oxopyrrolidine-1-yl)benzonitrile derivative 2f as a clinical candidate” (Bioorg Med Chem, 2017)

Assays:
Rattus norvegicus [1] = experiment: Induction of sexual behavior in castrated CD(SD)IGS rat assessed as pseudopregnancy rate at 5 mg/kg, po qd for 21 days measured on day 18 to 21 relative to control; format: functional
Canis familiaris = experiment: Toxicity in Beagle dog administered via oral gavage; design: species or system Canis lupus familiaris; settings: in vivo
Rattus norvegicus [2] = experiment: Induction of sexual behavior in castrated CD(SD)IGS rat assessed as pseudopregnancy rate at 1.5 mg/kg, po qd for 21 days measured on day 18 to 21 relative to control; format: functional
[3] = Clearance in mouse liver microsomes at 1 uM after 60 mins in presence of NADPH by UPLC analysis; format: ADME, microsome; settings: read-out: CLH
[4] = MRT in Crl:CD(SD) rat at 0.1 mg/kg, iv by LC-MS/MS analysis; format: ADME, organism-based; settings: in vivo
[5] = AUC (0 to 24 hrs) in cynomolgus monkey at 1 mg/kg, po by LC-MS/MS analysis; format: ADME, organism-based, Macaca fascicularis; design: dose 1 mg/kg, time < 24 hr, route oral; settings: in vivo
[6] = AUC (0 to 24 hrs) in Crl:CD(SD) rat at 0.1 mg/kg, iv by LC-MS/MS analysis; format: ADME, organism-based; design: dose 0.1 mg/kg, time < 24 hr, route intravenous; settings: in vivo
[7] = Tmax in Crl:CD(SD) rat at 1 mg/kg, po by LC-MS/MS analysis; format: ADME, organism-based; settings: in vivo
[8] = MRT in Beagle dog at 0.1 mg/kg, iv by LC-MS/MS analysis; format: ADME, organism-based, Canis lupus familiaris; settings: in vivo
[9] = Volume of distribution at steady state in cynomolgus monkey at 0.1 mg/kg, iv by LC-MS/MS analysis; format: ADME, organism-based, Macaca fascicularis; settings: in vivo, read-out: Vdss
Rhesus monkey = experiment: Toxicity in monkey assessed as convulsion administered via oral gavage; design: species or system Macaca mulatta; settings: in vivo
[10] = Plasma concentration in Crl:CD(SD) rat at 0.1 mg/kg, iv after 5 mins by LC-MS/MS analysis; format: ADME, organism-based
[11] = Volume of distribution at steady state in Crl:CD(SD) rat at 0.1 mg/kg, iv by LC-MS/MS analysis; format: ADME, organism-based; settings: in vivo, read-out: Vdss
Progesterone receptor = molecular target: T1, Progesterone receptor (Homo sapiens, UniProt P06401); experiment: Agonist activity at PR (unknown origin) by luciferase reporter gene assay
T1 sequence (P06401 whole entry): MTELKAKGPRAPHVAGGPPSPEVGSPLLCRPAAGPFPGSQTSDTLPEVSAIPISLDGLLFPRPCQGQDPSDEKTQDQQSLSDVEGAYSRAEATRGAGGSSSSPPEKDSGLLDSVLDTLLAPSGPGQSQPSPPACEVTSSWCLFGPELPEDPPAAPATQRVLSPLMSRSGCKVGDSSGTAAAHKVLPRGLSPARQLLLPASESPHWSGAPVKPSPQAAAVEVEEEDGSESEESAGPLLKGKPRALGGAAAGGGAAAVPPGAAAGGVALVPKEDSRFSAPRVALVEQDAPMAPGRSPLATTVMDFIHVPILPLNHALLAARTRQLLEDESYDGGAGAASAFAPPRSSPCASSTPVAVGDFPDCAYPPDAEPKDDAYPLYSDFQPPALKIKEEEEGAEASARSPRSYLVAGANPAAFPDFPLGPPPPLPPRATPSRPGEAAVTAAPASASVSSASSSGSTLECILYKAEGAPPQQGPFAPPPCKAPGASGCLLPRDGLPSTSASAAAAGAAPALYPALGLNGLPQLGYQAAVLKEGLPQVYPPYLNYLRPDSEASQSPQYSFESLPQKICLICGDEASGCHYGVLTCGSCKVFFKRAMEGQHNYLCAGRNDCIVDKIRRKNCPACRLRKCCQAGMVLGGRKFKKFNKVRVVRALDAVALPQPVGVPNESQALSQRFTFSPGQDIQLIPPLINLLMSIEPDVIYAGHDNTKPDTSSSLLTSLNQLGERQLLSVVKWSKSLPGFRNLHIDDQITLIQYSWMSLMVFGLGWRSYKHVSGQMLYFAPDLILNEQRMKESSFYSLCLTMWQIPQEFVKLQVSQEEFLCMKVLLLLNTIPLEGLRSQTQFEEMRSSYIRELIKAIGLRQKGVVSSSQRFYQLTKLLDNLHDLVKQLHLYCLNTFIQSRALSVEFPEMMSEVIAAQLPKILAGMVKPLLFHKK

Glucocorticoid receptor = molecular target: T2, Glucocorticoid receptor (Homo sapiens, UniProt P04150); experiment: Binding affinity to GR (unknown origin)
T2 sequence (P04150 whole entry): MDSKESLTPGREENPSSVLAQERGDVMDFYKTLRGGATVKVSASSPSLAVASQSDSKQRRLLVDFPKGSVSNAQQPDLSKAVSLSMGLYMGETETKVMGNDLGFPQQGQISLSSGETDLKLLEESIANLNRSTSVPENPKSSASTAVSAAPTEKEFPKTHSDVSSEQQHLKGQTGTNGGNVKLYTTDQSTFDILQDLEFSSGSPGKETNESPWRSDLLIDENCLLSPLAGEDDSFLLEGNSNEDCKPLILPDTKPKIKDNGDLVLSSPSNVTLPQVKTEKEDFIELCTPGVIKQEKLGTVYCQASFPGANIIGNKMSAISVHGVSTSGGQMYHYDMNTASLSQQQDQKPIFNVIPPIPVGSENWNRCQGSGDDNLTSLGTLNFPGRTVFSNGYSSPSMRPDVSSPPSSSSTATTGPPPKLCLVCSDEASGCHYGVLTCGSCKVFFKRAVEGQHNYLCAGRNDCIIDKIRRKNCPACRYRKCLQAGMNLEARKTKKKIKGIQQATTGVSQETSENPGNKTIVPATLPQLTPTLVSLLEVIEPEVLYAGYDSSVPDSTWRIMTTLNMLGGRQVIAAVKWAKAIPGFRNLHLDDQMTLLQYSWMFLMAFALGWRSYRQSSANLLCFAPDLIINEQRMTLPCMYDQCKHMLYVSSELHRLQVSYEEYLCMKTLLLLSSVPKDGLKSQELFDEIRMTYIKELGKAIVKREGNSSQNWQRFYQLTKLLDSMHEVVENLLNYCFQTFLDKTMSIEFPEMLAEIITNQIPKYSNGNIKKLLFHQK

[12] = Tmax in Beagle dog at 1 mg/kg, po by LC-MS/MS analysis; format: ADME, organism-based, Canis lupus familiaris; settings: in vivo
Rattus norvegicus [13] = experiment: Anabolic effect in castrated CD(SD)IGS rat assessed as levator ani muscle weight at 2.5 mg/kg, po bid for 4 days co-treated with testosterone propionate by Harshberger assay relative to control; format: functional
[14] = Oral bioavailability in cynomolgus monkey at 1 mg/kg by LC-MS/MS analysis; format: ADME, organism-based, Macaca fascicularis; settings: in vivo
[15] = Cmax in Crl:CD(SD) rat at 1 mg/kg, po by LC-MS/MS analysis; format: ADME, organism-based; design: dose 1 mg/kg, route oral; settings: in vivo
Rattus norvegicus [16] = experiment: Induction of sexual behavior in castrated CD(SD)IGS rat assessed as pseudopregnancy rate at 0.5 mg/kg, po qd for 21 days measured on day 18 to 21 relative to control; format: functional
[17] = Tmax in cynomolgus monkey at 1 mg/kg, po by LC-MS/MS analysis; format: ADME, organism-based, Macaca fascicularis; settings: in vivo
[18] = Total clearance in cynomolgus monkey at 0.1 mg/kg, iv by LC-MS/MS analysis; format: ADME, organism-based, Macaca fascicularis; settings: in vivo
[19] = Cmax in Beagle dog at 1 mg/kg, po by LC-MS/MS analysis; format: ADME, organism-based, Canis lupus familiaris; design: dose 1 mg/kg, route oral; settings: in vivo

Structure (SMILES): CC[C@H]1[C@@H](O)CC(=O)N1c1ccc(C#N)c(C(F)(F)F)c1
- Activity (Rattus norvegicus [1]): 86%
- Activity (Canis familiaris): Non-Toxic
- Activity (Rattus norvegicus [2]): 100%
- microsomal CLint at 1 µM [3]: 3 µL/min/mg
- MRT [4]: 2.32 h
- AUC(0-t) at 24 h [5]: 558 ng·h/mL
- AUC(0-t) at 24 h [6]: 108 ng·h/mL
- Tmax [7]: 0.5 h
- MRT [8]: 4.84 h
- Vd [9]: 1.47 L/kg
- Activity (Rhesus monkey): Toxic
- concentration at 5 min [10]: 70.8 ng/mL
- Vd [11]: 2.17 L/kg
- EC50 (Progesterone receptor): > 10 µM
- IC50 (Glucocorticoid receptor): > 10 µM
- Tmax [12]: 0.75 h
- Activity (Rattus norvegicus [13]): 129%
- bioavailability [14]: 48.1%
- Cmax [15]: 218 ng/mL
- Activity (Rattus norvegicus [16]): 100%
- Tmax [17]: 1.67 h
- clearance [18]: 14.2 mL/min/kg
- Cmax [19]: 265 ng/mL
